Experimental data taken from patent US20260137677A1, “PROTACS USEFUL AGAINST THE MAIN PROTEASE SARS-COV-2” (Tocris Cookson Limited, priority 2022, published 2026).
pEC50, pIC50: −log10 of the molar value. Read-outs that look alike come from different tables or passages of the source.

Legend:
[1] = tested on: SARS-CoV-2 (SARS-CoV2/ZG/297-20) in Vero E6 cells; experiment: microbe, parasite or virus in culture; type: cell-based; settings: for inhibition at 10 µM / inhibition at 50 µM: Severe acute respiratory syndrome coronavirus 2, Vero C1008, 72 h; for inhibition at 10 µM: read-out: Antiviral Activity 10 uM; for inhibition at 50 µM: read-out: Antiviral Activity 50 uM
[2] = tested on: SARS-CoV-2 (SARS-CoV2/ZG/297-20) in Vero E6 cells; experiment: Plaque reduction assay in Vero E6 cells; type: cell-based
[3] = biological target: T1, recombinant SARS-CoV-2 main protease (Mpro) (Severe acute respiratory syndrome coronavirus 2, UniProt P0DTD1); experiment: biochemical; settings: FRET assay, Mpro 50 nM, substrate 10 μM
T1 construct: the main protease (Mpro; also called 3CLpro) which has an essential role in processing the polyproteins

[4] = Severe acute respiratory syndrome coronavirus 2, Vero C1008, Vero E6 infected with SARS-CoV-2 at an MOI of 0.05, read-out: EC50 in antiviral assay

| SMILES | inhibition at 10 µM [1] [%] | inhibition at 50 µM [1] [%] | pEC50 ([1]; Severe acute respiratory syndrome coronavirus 2, Vero C1008, read-out: EC50 in antiviral assay) | reduction of viable virus in plaque reduction assay (in words) [2] | pIC50 [3] | pEC50 [1, 4] |
| --- | --- | --- | --- | --- | --- | --- |
| O=C1CCC(N2C(=O)c3cccc(OCCCCCCCCC(=O)Nc4cccn([C@@H](CC5CC5)C(=O)N[C@@H](C[C@@H]5CCNC5=O)C(=O)C(=O)NCc5ccccc5)c4=O)c3C2=O)C(=O)N1 (stereo partly drawn) [BT153, N-(1-((S)-1-(((S)-4-(benzylamino)-3,4-dioxo-1-((S)-2-oxopyrrolidin-3-yl)butan-2-yl)amino)-3-cyclopropyl-1-oxopropan-2-yl)-2-oxo-1,2-dihydropyridin-3-yl)-9-((2-(2,6-dioxopiperidin-3-yl)-1,3-dioxoisoindolin-4-yl)oxy)nonanamide] | < 75 | < 75 | 5.49 | efficient reduction of viable virus | > 7.00 |  |
| O=C1CCC(N2C(=O)c3cccc(OCCCCCCCCNC(=O)c4ccc5cncc(N6C(=O)NC7(CC(c8ccccc8Cl)C7)C6=O)c5c4)c3C2=O)C(=O)N1 (stereo not drawn) [Compound C10778N, 4-(2-(2-chlorophenyl)-6,8-dioxo-5,7-diazaspiro[3.4]octan-7-yl)-N-(8-((2-(2,6-dioxopiperidin-3-yl)-1,3-dioxoisoindolin-4-yl)oxy)octyl)isoquinoline-6-carboxamide] | < 75 | > 75 |  | efficiently reduces viable virus | > 7.00 | 5.77 |
| O=C1CCC(N2C(=O)c3cccc(OCCNC(=O)c4ccc5cncc(N6C(=O)NC7(CC(c8ccccc8Cl)C7)C6=O)c5c4)c3C2=O)C(=O)N1 (stereo not drawn) [Compound C10778P, 4-(2-(2-chlorophenyl)-6,8-dioxo-5,7-diazaspiro[3.4]octan-7-yl)-N-(2-((2-(2,6-dioxopiperidin-3-yl)-1,3-dioxoisoindolin-4-yl)oxy)ethyl)isoquinoline-6-carboxamide] | > 75 | > 75 |  |  | > 7.00 | 5.31 |
| O=C1CCC(N2C(=O)c3ccc(NCCCCCCNC(=O)c4ccc5cncc(N6C(=O)NC7(CC(c8ccccc8Cl)C7)C6=O)c5c4)cc3C2=O)C(=O)N1 (stereo not drawn) [Compound C10778Q, 4-(2-(2-chlorophenyl)-6,8-dioxo-5,7-diazaspiro[3.4]octan-7-yl)-N-(6-((2-(2,6-dioxopiperidin-3-yl)-1,3-dioxoisoindolin-5-yl)amino)hexyl)isoquinoline-6-carboxamide] | < 0 | < 25 |  |  | > 6.00 |  |
| O=C(COc1ccc(C2CCC(=O)NC2=O)cc1)NCCCCCNC(=O)c1ccc2cncc(N3C(=O)NC4(CC(c5ccccc5Cl)C4)C3=O)c2c1 (stereo not drawn) [Compound C10778R, 4-(2-(2-chlorophenyl)-6,8-dioxo-5,7-diazaspiro[3.4]octan-7-yl)-N-(5-(2-(4-(2,6-dioxopiperidin-3-yl)phenoxy)acetamido)pentyl)isoquinoline-6-carboxamide] | > 75 | > 75 |  |  | > 7.00 | 5.31 |
| O=C1CCC(N2C(=O)c3cccc(OCCOCCOCCOCCNC(=O)c4ccc5cncc(N6C(=O)NC7(CC(c8ccccc8Cl)C7)C6=O)c5c4)c3C2=O)C(=O)N1 (stereo not drawn) [Compound C10778S, 4-(2-(2-chlorophenyl)-6,8-dioxo-5,7-diazaspiro[3.4]octan-7-yl)-N-(2-(2-(2-(2-((2-(2,6-dioxopiperidin-3-yl)-1,3-dioxoisoindolin-4-yl)oxy)ethoxy)ethoxy)ethoxy)ethyl)isoquinoline-6-carboxamide] | < 25 | > 75 |  |  | > 7.00 |  |
| O=C1CCC(N2C(=O)c3cccc(OCCCCCCCCNC(=O)c4ccc5c(N6C(=O)NC7(CC(c8ccccc8Cl)C7)C6=O)cncc5c4)c3C2=O)C(=O)N1 (stereo not drawn) [Compound C10778T, 4-(2-(2-chlorophenyl)-6,8-dioxo-5,7-diazaspiro[3.4]octan-7-yl)-N-(8-((2-(2,6-dioxopiperidin-3-yl)-1,3-dioxoisoindolin-4-yl)oxy)octyl)isoquinoline-7-carboxamide] | < 0 | < 0 |  |  | > 7.00 |  |
| O=C1CCC(N2C(=O)c3cccc(OCCCCNC(=O)c4ccc5c(N6C(=O)NC7(CC(c8ccccc8Cl)C7)C6=O)cncc5c4)c3C2=O)C(=O)N1 (stereo not drawn) [Compound C10778U, 4-(2-(2-chlorophenyl)-6,8-dioxo-5,7-diazaspiro[3.4]octan-7-yl)-N-(4-((2-(2,6-dioxopiperidin-3-yl)-1,3-dioxoisoindolin-4-yl)oxy)butyl)isoquinoline-7-carboxamide] | < 25 | < 25 |  |  | > 7.00 |  |
| O=C1CCC(N2C(=O)c3cccc(OCCNC(=O)c4ccc5c(N6C(=O)NC7(CC(c8ccccc8Cl)C7)C6=O)cncc5c4)c3C2=O)C(=O)N1 (stereo not drawn) [Compound C10778V, 4-(2-(2-chlorophenyl)-6,8-dioxo-5,7-diazaspiro[3.4]octan-7-yl)-N-(2-((2-(2,6-dioxopiperidin-3-yl)-1,3-dioxoisoindolin-4-yl)oxy)ethyl)isoquinoline-7-carboxamide] | < 25 | < 25 |  |  | > 7.00 |  |
| O=C1CCC(N2C(=O)c3ccc(NCCCCCCNC(=O)c4ccc5c(N6C(=O)NC7(CC(c8ccccc8Cl)C7)C6=O)cncc5c4)cc3C2=O)C(=O)N1 (stereo not drawn) [Compound C10778W, 4-(2-(2-chlorophenyl)-6,8-dioxo-5,7-diazaspiro[3.4]octan-7-yl)-N-(6-((2-(2,6-dioxopiperidin-3-yl)-1,3-dioxoisoindolin-5-yl)amino)hexyl)isoquinoline-7-carboxamide] | < 0 | < 0 |  |  | > 6.00 |  |
| O=C(COc1ccc(C2CCC(=O)NC2=O)cc1)NCCCCCNC(=O)c1ccc2c(N3C(=O)NC4(CC(c5ccccc5Cl)C4)C3=O)cncc2c1 (stereo not drawn) [Compound C10778X, 4-(2-(2-chlorophenyl)-6,8-dioxo-5,7-diazaspiro[3.4]octan-7-yl)-N-(5-(2-(4-(2,6-dioxopiperidin-3-yl)phenoxy)acetamido)pentyl)isoquinoline-7-carboxamide] | < 0 | < 0 |  |  | > 7.00 |  |
| O=C1CCC(N2C(=O)c3cccc(OCCOCCOCCOCCNC(=O)c4ccc5c(N6C(=O)NC7(CC(c8ccccc8Cl)C7)C6=O)cncc5c4)c3C2=O)C(=O)N1 (stereo not drawn) [Compound C10778Y, 4-(2-(2-chlorophenyl)-6,8-dioxo-5,7-diazaspiro[3.4]octan-7-yl)-N-(2-(2-(2-(2-((2-(2,6-dioxopiperidin-3-yl)-1,3-dioxoisoindolin-4-yl)oxy)ethoxy)ethoxy)ethoxy)ethyl)isoquinoline-7-carboxamide] | < 25 | < 50 |  |  | > 7.00 |  |
| O=C1CCC(N2C(=O)c3cccc(OCCCCNC(=O)c4ccc5cncc(N6C(=O)NC7(CC(c8ccccc8Cl)C7)C6=O)c5c4)c3C2=O)C(=O)N1 (stereo not drawn) [Compound C107780, 4-(2-(2-chlorophenyl)-6,8-dioxo-5,7-diazaspiro[3.4]octan-7-yl)-N-(4-((2-(2,6-dioxopiperidin-3-yl)-1,3-dioxoisoindolin-4-yl)oxy)butyl)isoquinoline-6-carboxamide] | < 25 | > 75 |  |  | > 7.00 |  |
| O=C1CCC(N2C(=O)c3cccc(NCCCNC(=O)[C@@H](NC(=O)C(c4cccnc4)N(C(=O)c4ccco4)c4ccc5c(c4)oc4ccccc45)c4ccccc4)c3C2=O)C(=O)N1 (stereo partly drawn) [TS284F2] | < 0 | < 0 |  |  | > 5.00 |  |
| O=C1CCC(N2C(=O)c3cccc(NCCCCCCNC(=O)[C@@H](NC(=O)C(c4cccnc4)N(C(=O)c4ccco4)c4ccc5c(c4)oc4ccccc45)c4ccccc4)c3C2=O)C(=O)N1 (stereo partly drawn) [TS296] | < 0 | < 0 |  |  | < 4.60 |  |
